Entries after “also recorded” stand apart in the source; their conditions may differ. Where two headings read alike, the source gives them in different places.
Legend:
Dopamine D2(s) = Dopamine D2(s) (Homo sapiens, UniProt P14416); test: Cerep screen, Dopamine D2(s); details: radioligand binding assays and broad panel screen
Dopamine D1 = Dopamine D1 (Homo sapiens, UniProt P21728); test: Cerep screen, Dopamine D1; details: radioligand binding assays and broad panel screen
Serotonin 5-HT7 = Serotonin 5-HT7 (Homo sapiens, UniProt P34969); test: Cerep screen, Serotonin 5-HT7; details: 1 or 10 μM final concentration; n=2
Chain of Serotonin 5-HT7 (P34969 whole entry): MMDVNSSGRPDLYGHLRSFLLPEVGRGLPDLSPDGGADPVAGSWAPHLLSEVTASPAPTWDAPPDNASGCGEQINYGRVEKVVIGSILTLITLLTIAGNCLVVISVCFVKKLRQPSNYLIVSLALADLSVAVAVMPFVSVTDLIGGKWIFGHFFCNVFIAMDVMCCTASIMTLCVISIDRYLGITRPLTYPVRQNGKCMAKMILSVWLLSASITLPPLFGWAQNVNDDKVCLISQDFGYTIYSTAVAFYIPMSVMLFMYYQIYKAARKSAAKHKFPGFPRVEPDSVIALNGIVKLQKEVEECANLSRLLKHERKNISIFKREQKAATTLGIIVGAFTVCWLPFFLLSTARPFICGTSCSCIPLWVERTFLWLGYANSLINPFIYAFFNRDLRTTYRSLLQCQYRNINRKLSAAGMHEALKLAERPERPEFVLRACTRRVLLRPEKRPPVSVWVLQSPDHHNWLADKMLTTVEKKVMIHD

[1] = Phase 1 open-label one-sequence crossover drug-interaction study: plasma pharmacokinetics of NBI-98854 and metabolites with and without rifampin; format: in vivo, human; details: for CL/F / AUC(0-inf) / Cmax / MRT / Tmax / AUC(0-t) / t1/2: N = 11; for CL/F / AUC(0-inf) / Cmax / MRT / AUC(0-t) / t1/2: Mean (SD); for half-life / AUC(0-inf) / Cmax / MRT / Tmax / AUC(0-t): both sexes, human, oral; for half-life: read-out: Mean t1/2 (converted); for AUC(0-inf) / Cmax / MRT / Tmax / AUC(0-t) / t1/2: plasma NBI-98854; for Tmax: Median (mm, max), read-out: tmax; for AUC(0-t): plasma
Protocol: (§1) Subjects received a single dose of 80 mg valbenazine tosylate on Days 1 and 11 between 0800 and 1000 hours. In addition, subjects received 600 mg rifampin (300 mg×2 capsules) once daily on Days 5 (after collection of the 96-hour PK sample) through 14 between 0830 and 1030 hours. Subjects were required to fast overnight before receiving the study drugs (valbenazine tosylate and rifampin). Subjects were discharged from the study center on Day 15 (final study day or upon early termination) after all safety evaluations and study assessments had been completed.
Safety was assessed throughout the study.
NBI-98854 40 mg capsules were administered orally. The dose of NBI-98854 was based on ditosylate salt (dose expressed as free base). Subjects received a single dose of NBI-98854 80 mg (as two 40 mg capsules) twice during the study, on Days 1 and 11.
Rifampin 300 mg capsules were administered orally. Subjects received a single dose of rifampin 600 mg (as two 300 mg capsules) on Days 5 (after collection of the 96 hour NBI-98854 PK sample) through 14 between 0830 and 1030 hours.
The following plasma PK parameters were calculated only for NBI-98854: • Apparent systemic clearance after oral administration (CL/F) • Apparent volume of distribution during the terminal phase after oral administration (Vz/F)
The last significant figure was rounded up if the digit to the right of it was >5, and was rounded down if the digit to the right of it was […].
The last significant figure was rounded up if the digit to the right of it was ≥5, and was rounded down if the digit to the right of it was ≤4.
(§2) An analysis of variance (ANOVA) model was used to compare AUC0-∞ and Cmax for NBI-98854 administered with rifampin (“test”) versus AUC0-∞ and Cmax for NBI-98854 alone (“reference”). The PK parameters for metabolites of NBI-98854 and rifampin were also evaluated. Safety data were summarized using descriptive statistics.

[2] = Phase 1 drug-interaction study: safety, treatment-emergent adverse events; format: in vivo, human
Protocol: as §1, §2

CYP enzymes = details: human
human VMAT1 transporter = target: T1, human VMAT1 transporter (Homo sapiens, UniProt P54219); test: Uptake in cells expressing VMAT1; format: cell-based; details: TBZ, VBZ and metabolites at concentrations up to 10 μM, listed as VBZ
T1 construct: expressed in transfected cells
T1 sequence (P54219 1-525): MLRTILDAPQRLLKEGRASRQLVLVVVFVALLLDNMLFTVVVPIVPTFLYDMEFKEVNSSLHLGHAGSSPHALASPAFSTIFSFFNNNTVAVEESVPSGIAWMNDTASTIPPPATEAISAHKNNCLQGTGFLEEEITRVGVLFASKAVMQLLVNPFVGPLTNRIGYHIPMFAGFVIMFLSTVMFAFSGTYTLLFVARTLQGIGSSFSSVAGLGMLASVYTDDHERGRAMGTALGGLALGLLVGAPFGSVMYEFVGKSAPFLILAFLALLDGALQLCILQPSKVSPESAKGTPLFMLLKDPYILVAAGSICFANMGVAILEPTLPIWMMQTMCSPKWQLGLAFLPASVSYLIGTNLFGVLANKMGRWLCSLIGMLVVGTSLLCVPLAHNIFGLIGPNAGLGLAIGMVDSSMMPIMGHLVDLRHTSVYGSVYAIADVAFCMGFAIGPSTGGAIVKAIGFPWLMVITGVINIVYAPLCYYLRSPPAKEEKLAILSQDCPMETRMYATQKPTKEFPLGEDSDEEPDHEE

Serotonin 5-HT1A = target: T2, Serotonin 5-HT1A (Homo sapiens, UniProt P08908); test: Cerep screen, Serotonin 5-HT1A; details: 1 or 10 μM final concentration; n=2
T2 sequence (P08908 1-422): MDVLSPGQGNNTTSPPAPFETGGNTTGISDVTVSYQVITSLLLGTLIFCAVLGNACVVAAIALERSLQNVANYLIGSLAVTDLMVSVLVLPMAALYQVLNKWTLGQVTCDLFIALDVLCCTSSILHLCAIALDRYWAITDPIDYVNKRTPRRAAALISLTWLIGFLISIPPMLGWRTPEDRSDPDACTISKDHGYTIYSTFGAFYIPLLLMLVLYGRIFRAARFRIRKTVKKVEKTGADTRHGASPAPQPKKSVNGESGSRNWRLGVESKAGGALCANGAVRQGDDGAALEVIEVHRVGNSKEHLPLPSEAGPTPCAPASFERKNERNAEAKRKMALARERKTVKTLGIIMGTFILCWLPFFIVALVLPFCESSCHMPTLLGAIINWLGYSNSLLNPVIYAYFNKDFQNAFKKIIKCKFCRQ

[3] = system: more than 80 targets (GPCRs, cell-surface monoamine transporters, ion channels including HERG); test: Cerep multi-target activity screen; details: receptors, monoamine transporters, and ion channels
[4] = Ptosis, in vivo surrogate measure of pharmacological effect
VMAT2 = target: T3, VMAT2 (Homo sapiens, UniProt Q05940); test: Inhibition of [3H]-DHTBZ binding to human platelets
T3 construct: from tissue; host or cells: human platelets (homogenates)
T3 sequence (Q05940 whole entry): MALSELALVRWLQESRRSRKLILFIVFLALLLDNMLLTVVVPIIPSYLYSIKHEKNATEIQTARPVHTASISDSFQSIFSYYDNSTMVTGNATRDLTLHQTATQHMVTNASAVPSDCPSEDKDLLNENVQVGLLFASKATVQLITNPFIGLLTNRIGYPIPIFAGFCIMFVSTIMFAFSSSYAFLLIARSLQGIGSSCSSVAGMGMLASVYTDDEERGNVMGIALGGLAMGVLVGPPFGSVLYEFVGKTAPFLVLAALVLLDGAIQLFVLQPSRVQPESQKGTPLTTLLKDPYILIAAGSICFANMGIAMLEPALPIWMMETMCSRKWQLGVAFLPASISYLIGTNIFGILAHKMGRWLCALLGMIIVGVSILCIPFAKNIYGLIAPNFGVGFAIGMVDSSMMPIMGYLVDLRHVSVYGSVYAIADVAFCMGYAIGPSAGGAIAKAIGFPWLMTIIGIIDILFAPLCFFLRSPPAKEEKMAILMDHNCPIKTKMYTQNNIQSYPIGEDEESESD

[5] = NBI-98854 80 mg + rifampin 600 mg
[6] = plasma analyte, NBI-98854 plus rifampin compared with NBI-98854 alone
[7] = Safety Analysis Set, healthy subjects, by treatment period

Chain of Dopamine D2(s) (P14416 1-414 isoform P14416-2): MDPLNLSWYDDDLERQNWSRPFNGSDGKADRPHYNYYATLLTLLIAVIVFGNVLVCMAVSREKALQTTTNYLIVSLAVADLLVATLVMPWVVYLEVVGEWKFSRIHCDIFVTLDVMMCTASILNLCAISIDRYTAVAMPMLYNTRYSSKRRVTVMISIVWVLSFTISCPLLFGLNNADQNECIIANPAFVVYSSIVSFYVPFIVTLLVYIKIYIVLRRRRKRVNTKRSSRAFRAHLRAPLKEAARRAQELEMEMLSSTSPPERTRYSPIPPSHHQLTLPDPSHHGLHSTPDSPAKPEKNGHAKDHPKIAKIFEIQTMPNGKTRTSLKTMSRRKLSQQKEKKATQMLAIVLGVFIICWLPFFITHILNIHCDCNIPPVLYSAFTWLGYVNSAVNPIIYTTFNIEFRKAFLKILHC
Chain of Dopamine D1 (P21728 whole entry): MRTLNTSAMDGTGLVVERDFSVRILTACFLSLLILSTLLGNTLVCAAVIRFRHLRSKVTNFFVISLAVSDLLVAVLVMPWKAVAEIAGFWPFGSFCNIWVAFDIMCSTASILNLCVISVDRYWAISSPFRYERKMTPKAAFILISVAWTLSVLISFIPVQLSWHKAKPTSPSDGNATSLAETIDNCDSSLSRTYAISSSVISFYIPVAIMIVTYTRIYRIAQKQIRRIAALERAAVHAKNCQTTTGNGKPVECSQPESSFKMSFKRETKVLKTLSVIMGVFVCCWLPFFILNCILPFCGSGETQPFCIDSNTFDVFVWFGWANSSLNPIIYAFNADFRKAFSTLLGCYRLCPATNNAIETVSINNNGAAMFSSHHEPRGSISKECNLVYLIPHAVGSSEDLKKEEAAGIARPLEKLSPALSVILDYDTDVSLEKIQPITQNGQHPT

SMILES: COc1cc2c(cc1OC)[C@@H]1C[C@@H](O)[C@@H](CC(C)C)CN1CC2 [R,S,S-DHTBZ]
- interaction with D2 receptors (Dopamine D2(s)): interact with D1 and D2 receptors
- interaction with D1 receptors (Dopamine D1): interact with D1 and D2 receptors

SMILES: COc1cc2c(cc1OC)[C@@H]1C[C@H](O)[C@@H](CC(C)C)CN1CC2 [S,S,S-DHTBZ]
- interaction with D2 receptors (Dopamine D2(s)): interact with D1 and D2 receptors
- interaction with D1 receptors (Dopamine D1): interact with D1 and D2 receptors

SMILES: COc1cc2c(cc1OC)[C@H]1C[C@@H](OC(=O)[C@@H](N)C(C)C)[C@H](CC(C)C)CN1CC2 [NBI-98854, (S)-2-amino-3-methyl-butyric acid (2R, 3R,11bR)-3-isobutyl-9,10-dimethoxy-1,3,4,6,7,11b-hexahydro-2H-pyrido[2,1-a]isoquinolin-2-yl ester]
- percent of control specific binding, Serotonin 5-HT7 (Serotonin 5-HT7): 4%
- CL/F [1, 5]: 50.3 (11.4) L/hr
- CL/F ([1]; NBI-98854 80 mg alone): 13.8 (2.77) L/hr
- half-life ([1]; 80 mg, plasma analyte, NBI-98854 alone): 960 min
- AUC(0-inf) [1, 5]: 1700 ng·h/mL
- Cmax [1, 5]: 542 ng/mL
- MRT [1, 5]: 8.7 h
- Tmax [1, 5]: 45 min
- AUC(0-inf) ([1]; NBI-98854 80 mg alone): 6020 ng·h/mL
- Cmax ([1]; NBI-98854 80 mg alone): 795 ng/mL
- MRT ([1]; NBI-98854 80 mg alone): 17 h
- Tmax ([1]; NBI-98854 80 mg alone): 45 min
- half-life ([1]; plasma analyte, NBI-98854 administered with rifampin): 600 min
- AUC(0-t) ([1]; 80 mg, NBI-98854 80 mg alone, read-out: AUC0-24): 4480 ng·h/mL
- AUC(0-t) ([1]; 80 mg, NBI-98854 80 mg alone, read-out: AUC0-tlast): 5930 ng·h/mL
- AUC(0-t) ([1]; NBI-98854 80 mg + rifampin 600 mg, read-out: AUC0-24): 1510 ng·h/mL
- AUC(0-t) ([1]; NBI-98854 80 mg + rifampin 600 mg, read-out: AUC0-tlast): 1670 ng·h/mL
- t1/2 [1, 5]: 10 (2.1) hours
- t1/2 ([1]; NBI-98854 80 mg alone): 16 (2.3) hours
- decrease in AUC0-∞ [1, 6]: ~70%
- decrease in Cmax [1, 6]: ~30%
- Tolerability ([2]; 80 mg in healthy subjects, alone or concomitantly with rifampin): well tolerated
- Subjects who experienced a TEAE: Overall [2, 7]: 6 (50.0) n (%)
- TEAE: Abdominal pain [2, 7]: 1 (8.3) n (%)
- TEAE: Abdominal pain upper [2, 7]: 0 n (%)
- TEAE: Arthropod bite [2, 7]: 1 (8.3) n (%)
- TEAE: Chromaturia [2, 7]: 0 n (%)
- TEAE: Headache [2, 7]: 3 (25.0) n (%)
- TEAE: Hypoaesthesia [2, 7]: 0 n (%)
- TEAE: Non-cardiac chest pain [2, 7]: 0 n (%)
- TEAE: Paraesthesia [2, 7]: 0 n (%)
- TEAE: Vessel puncture site haemorrhage [2, 7]: 1 (8.3) n (%)
- enzymes involved in oxidative metabolism (CYP enzymes): CYP3A4/5 is the major enzyme
- inhibition of uptake through VMAT1 (human VMAT1 transporter): no significant inhibitory activity; also recorded: no significant effect
- percent of control specific binding, Serotonin 5-HT1A (Serotonin 5-HT1A): 26%
- affinity for more than 80 binding sites [3]: little to no affinity
- induction of ptosis [4]: induced ptosis in an equivalent manner
- Affinity Relative to R,R,R-DHTBZ (VMAT2): 45
- pKi mean (SEM) (VMAT2; n=4): 6.82 (0.02)

Source: patent US10912771B1, “Methods for the administration of certain VMAT2 inhibitors” (Neurocrine Biosciences, Inc., priority 2017, dated 2021)
